{"source": "patent US8501786B2", "about": "“Hydroxymethyl pyrrolidines as beta 3 adrenergic receptor agonists” (Merck Sharp & Dohme Corp., priority 2009, dated 2013)", "note": "pEC50: −log10 of the molar value. Where a name gives a salt, the structure may show the parent alone."}
{"molecular_target": "T1, human β3 adrenergic receptor (Homo sapiens, UniProt P13945)", "T1 construct": "stably transfected with the cloned β-adrenergic receptor (β1, β2 or β3); expressed in transfected cells; host or cells: Chinese hamster ovary (CHO) cells, stably transfected", "T1 sequence (P13945 whole entry)": "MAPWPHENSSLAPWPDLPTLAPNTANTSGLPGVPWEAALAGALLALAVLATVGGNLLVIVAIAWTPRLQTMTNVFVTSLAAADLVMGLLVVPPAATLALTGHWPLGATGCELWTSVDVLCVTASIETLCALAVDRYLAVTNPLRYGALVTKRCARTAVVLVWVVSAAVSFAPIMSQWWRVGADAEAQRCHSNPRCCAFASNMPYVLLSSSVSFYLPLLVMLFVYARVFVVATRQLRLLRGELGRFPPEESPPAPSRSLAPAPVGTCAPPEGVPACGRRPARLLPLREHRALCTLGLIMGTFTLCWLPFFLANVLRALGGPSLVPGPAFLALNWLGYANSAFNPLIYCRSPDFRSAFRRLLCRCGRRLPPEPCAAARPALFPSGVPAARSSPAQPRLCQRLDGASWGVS", "test": "Functional assay: cAMP production (LANCE TR-FRET) in CHO cells stably transfected with cloned β3 adrenergic receptor", "type": "cell-based", "conditions": "Table 2; cAMP production, CHO cells expressing human β3 AR; read-out: Human β3 functional"}
{"molecule": "Cc1nn(C)c(O)c1CC(=O)Nc1ccc(CC2CC[C@H]([C@H](O)c3cccnc3)N2)cc1", "note": "(some centres unmarked) [Example 88]", "pEC50": "6.00 to 7.00"}
{"molecule": "NC(=O)c1ccn(CC(=O)Nc2ccc(CC3CC[C@H]([C@H](O)c4cccnc4)N3)cc2)n1", "note": "(some centres unmarked) [Example 89]", "pEC50": "7.00 to 7.96"}
{"molecule": "NC(=O)c1cnn(CC(=O)Nc2ccc(CC3CC[C@H]([C@H](O)c4cccnc4)N3)cc2)c1", "note": "(some centres unmarked) [Example 90]", "pEC50": "7.00 to 7.96"}
{"molecular_target": "T1, human β3 adrenergic receptor", "test": "Functional assay: cAMP production (LANCE TR-FRET) in CHO cells stably transfected with cloned β3 adrenergic receptor", "type": "cell-based", "conditions": "Table 3; cAMP production, CHO cells expressing human β3 AR; read-out: Human β3 functional"}
{"molecule": "O=C(Nc1ccc(CC2CC[C@H]([C@H](O)c3cccnc3)N2)cc1)[C@@H]1CCc2nnnn21", "note": "(some centres unmarked) [Example 172]", "pEC50": "8.00 to 9.00"}
{"molecule": "O=C(Nc1ccc(CC2CC[C@H]([C@H](O)c3cccnc3)N2)cc1)[C@H]1CCc2nnnn21", "note": "(some centres unmarked) [Example 173]", "pEC50": "8.00 to 9.00"}
{"molecular_target": "T1, human β3 adrenergic receptor", "test": "Functional assay: cAMP production (LANCE TR-FRET) in CHO cells stably transfected with cloned β3 adrenergic receptor", "type": "cell-based", "conditions": "Table 4; cAMP production, CHO cells expressing human β3 AR; read-out: Human β3 functional"}
{"molecule": "O=S(=O)(Nc1ccc(CC2CC[C@H]([C@H](O)c3cccnc3)N2)cc1)c1ccc(-c2nc(-c3ccc(C(F)(F)F)cc3)cs2)cc1", "note": "(some centres unmarked) [Example 223]", "pEC50": "8.00 to 9.00"}
{"molecule": "O=S(=O)(Nc1ccc(CC2CC[C@H]([C@H](O)c3cccnc3)N2)cc1)c1ccc(I)cc1", "note": "(some centres unmarked) [Example 224]", "pEC50": "7.00 to 7.96"}
{"molecule": "O=S(=O)(Nc1ccc(CC2CC[C@H]([C@H](O)c3cccnc3)N2)cc1)c1ccc2ccccc2c1", "note": "(some centres unmarked) [Example 225]", "pEC50": "7.00 to 7.96"}
{"molecule": "O=S(=O)(Cc1ccccn1)Nc1ccc(CC2CC[C@H]([C@H](O)c3cccnc3)N2)cc1", "note": "(some centres unmarked) [Example 226]", "pEC50": "6.00 to 7.00"}
{"molecule": "O=S(=O)(Nc1ccc(CC2CC[C@H]([C@H](O)c3cccnc3)N2)cc1)c1ccc(-n2cccn2)cc1", "note": "(some centres unmarked) [Example 227]", "pEC50": "7.00 to 7.96"}
{"molecule": "O=S(=O)(Nc1ccc(CC2CC[C@H]([C@H](O)c3cccnc3)N2)cc1)c1ccc2cnccc2c1", "note": "(some centres unmarked) [Example 228]", "pEC50": "6.00 to 7.00"}
{"molecule": "O=S(=O)(Nc1ccc(CC2CC[C@H]([C@H](O)c3cccnc3)N2)cc1)c1cccc2cccnc12", "note": "(some centres unmarked) [Example 229]", "pEC50": "6.00 to 7.00"}
{"molecule": "O=S(=O)(Nc1ccc(CC2CC[C@H]([C@H](O)c3cccnc3)N2)cc1)c1cccc2cnccc12", "note": "(some centres unmarked) [Example 230]", "pEC50": "6.00 to 7.00"}
{"molecule": "O=S(=O)(Nc1ccc(CC2CC[C@H]([C@H](O)c3cccnc3)N2)cc1)c1ccc2ncsc2c1", "note": "(some centres unmarked) [Example 231]", "pEC50": "6.00 to 7.00"}
{"molecule": "O=S(=O)(Nc1ccc(CC2CC[C@H]([C@H](O)c3cccnc3)N2)cc1)c1ccc(-c2cnco2)cc1", "note": "(some centres unmarked) [Example 232]", "pEC50": "7.00 to 7.96"}
{"molecule": "O=C(N1CCc2ccc(S(=O)(=O)Nc3ccc(CC4CC[C@H]([C@H](O)c5cccnc5)N4)cc3)cc2C1)C(F)(F)F", "note": "(some centres unmarked) [Example 233]", "pEC50": "6.00 to 7.00"}
{"molecule": "O=c1ccc2cc(S(=O)(=O)Nc3ccc(CC4CC[C@H]([C@H](O)c5cccnc5)N4)cc3)ccc2o1", "note": "(some centres unmarked) [Example 234]", "pEC50": "6.00 to 7.00"}
{"molecule": "N#Cc1ccccc1S(=O)(=O)Nc1ccc(CC2CC[C@H]([C@H](O)c3cccnc3)N2)cc1", "note": "(some centres unmarked) [Example 235]", "pEC50": "6.00 to 7.00"}
{"molecule": "N#Cc1cccc(S(=O)(=O)Nc2ccc(CC3CC[C@H]([C@H](O)c4cccnc4)N3)cc2)c1", "note": "(some centres unmarked) [Example 236]", "pEC50": "6.00 to 7.00"}
{"molecule": "N#Cc1ccc(S(=O)(=O)Nc2ccc(CC3CC[C@H]([C@H](O)c4cccnc4)N3)cc2)cc1", "note": "(some centres unmarked) [Example 237]", "pEC50": "6.00 to 7.00"}
{"molecule": "O=S(=O)(Nc1ccc(CC2CC[C@H]([C@H](O)c3cccnc3)N2)cc1)c1ccccc1I", "note": "(some centres unmarked) [Example 238]", "pEC50": "6.00 to 7.00"}
{"molecular_target": "T1, human β3 adrenergic receptor", "test": "Functional assay: cAMP production (LANCE TR-FRET) in CHO cells stably transfected with cloned β3 adrenergic receptor", "type": "cell-based", "conditions": "Table 5; human β3 functional activity given as ranges; read-out: Human β3 functional"}
{"molecule": "Nc1nc(CC(=O)Nc2ccc(CC3CC[C@H]([C@H](O)c4cccnc4)N3)cc2Br)cs1", "note": "(some centres unmarked) [Example 242]", "pEC50": "6.00 to 7.00"}
{"molecular_target": "T1, human β3 adrenergic receptor", "test": "Functional assay: cAMP production (LANCE TR-FRET) in CHO cells stably transfected with cloned β3 adrenergic receptor", "type": "cell-based", "conditions": "Table 6; human β3 functional activity given as ranges; read-out: Human β3 functional"}
{"molecule": "CC(C(=O)Nc1ccc(C[C@@H]2CC[C@H]([C@H](O)c3cccnc3)N2)cc1)N(C)C(=O)c1ccccn1", "note": "(some centres unmarked) [Example 247]", "pEC50": "6.00 to 7.00"}
{"molecule": "CC(C(=O)Nc1ccc(C[C@@H]2CC[C@H]([C@H](O)c3cccnc3)N2)cc1)N(C)C(=O)c1ccccc1F", "note": "(some centres unmarked) [Example 248]", "pEC50": "7.00 to 7.96"}
{"molecule": "CC(=O)NC(C)C(=O)Nc1ccc(C[C@@H]2CC[C@H]([C@H](O)c3cccnc3)N2)cc1", "note": "(some centres unmarked) [Example 249]", "pEC50": "7.00 to 7.96"}
{"molecule": "CC(NC(=O)c1c(F)cccc1F)C(=O)Nc1ccc(C[C@@H]2CC[C@H]([C@H](O)c3cccnc3)N2)cc1", "note": "(some centres unmarked) [Example 250]", "pEC50": "> 9.00"}
{"molecule": "CC(NC(=O)c1cscn1)C(=O)Nc1ccc(C[C@@H]2CC[C@H]([C@H](O)c3cccnc3)N2)cc1", "note": "(some centres unmarked) [Example 251]", "pEC50": "8.00 to 9.00"}
{"molecule": "CC(NC(=O)c1nc[nH]n1)C(=O)Nc1ccc(C[C@@H]2CC[C@H]([C@H](O)c3cccnc3)N2)cc1", "note": "(some centres unmarked) [Example 252]", "pEC50": "8.00 to 9.00"}
{"molecule": "CC(NC(=O)c1cnccn1)C(=O)Nc1ccc(C[C@@H]2CC[C@H]([C@H](O)c3cccnc3)N2)cc1", "note": "(some centres unmarked) [Example 253]", "pEC50": "7.00 to 7.96"}
{"molecule": "CC(N)C(=O)Nc1ccc(C[C@@H]2CC[C@H]([C@H](O)c3cccnc3)N2)cc1", "note": "(some centres unmarked) [Example 254]", "pEC50": "7.00 to 7.96"}
{"molecule": "CC(NC(=O)c1cccc(F)c1F)C(=O)Nc1ccc(C[C@@H]2CC[C@H]([C@H](O)c3cccnc3)N2)cc1", "note": "(some centres unmarked) [Example 255]", "pEC50": "> 9.00"}
{"molecule": "CC(NS(=O)(=O)c1ccccc1F)C(=O)Nc1ccc(C[C@@H]2CC[C@H]([C@H](O)c3cccnc3)N2)cc1", "note": "(some centres unmarked) [Example 256]", "pEC50": "7.00 to 7.96"}
{"molecule": "CC(NS(=O)(=O)c1ccccc1)C(=O)Nc1ccc(C[C@@H]2CC[C@H]([C@H](O)c3cccnc3)N2)cc1", "note": "(some centres unmarked) [Example 257]", "pEC50": "7.00 to 7.96"}
{"molecule": "CC(NS(=O)(=O)Cc1ccccc1)C(=O)Nc1ccc(C[C@@H]2CC[C@H]([C@H](O)c3cccnc3)N2)cc1", "note": "(some centres unmarked) [Example 258]", "pEC50": "7.00 to 7.96"}
{"molecule": "CC(NC(=O)c1ccc(F)cc1)C(=O)Nc1ccc(C[C@@H]2CC[C@H]([C@H](O)c3cccnc3)N2)cc1", "note": "(some centres unmarked) [Example 259]", "pEC50": "8.00 to 9.00"}
{"molecule": "CC(NC(=O)c1ccccc1)C(=O)Nc1ccc(C[C@@H]2CC[C@H]([C@H](O)c3cccnc3)N2)cc1", "note": "(some centres unmarked) [Example 260]", "pEC50": "> 9.00"}
{"molecule": "CC(C(=O)Nc1ccc(C[C@@H]2CC[C@H]([C@H](O)c3cccnc3)N2)cc1)N(C)C(=O)c1ccccc1F", "note": "(some centres unmarked) [Example 261]", "pEC50": "7.00 to 7.96"}
{"molecular_target": "T1, human β3 adrenergic receptor", "test": "Functional assay: cAMP production (LANCE TR-FRET) in CHO cells stably transfected with cloned β3 adrenergic receptor", "type": "cell-based", "conditions": "cAMP production, CHO cells expressing human β3 AR; read-out: human Beta-3 agonist functional activity"}
{"molecule": "O=S(=O)(Nc1ccc(C[C@@H]2CC[C@H]([C@H](O)c3cccnc3)N2)cc1)c1ccc(-c2nc(-c3ccc(C(F)(F)F)cc3)cs2)cc1", "note": "[Example 222, N-[4-({(2S,5R)-5-[(R)-hydroxy(pyridin-3-yl)methyl]pyrrolidin-2-yl}methyl)phenyl]-4-{4-[4-(trifluoromethyl)phenyl]-1,3-thiazol-2-yl}benzenesulfonamide, trifluoroacetic acid salt]", "pEC50": "> 8.00"}
{"molecule": "CCCCCCNC(=O)Nc1ccc(S(=O)(=O)Nc2ccc(C[C@@H]3CC[C@H]([C@H](O)c4cccnc4)N3)cc2)cc1", "note": "[Example 239, 4-{[(Hexylamino)carbonyl]amino}-N-[4-({(2S,5R)-5-[(R)-hydroxy(pyridin-3-yl)methyl]pyrrolidin-2-yl}methyl)phenyl]benzenesulfonamide, trifluoroacetic acid salt]", "pEC50": "> 8.00"}
{"molecule": "C[C@H](NC(=O)c1ccccc1F)C(=O)Nc1ccc(C[C@@H]2CC[C@H]([C@H](O)c3cccnc3)N2)cc1", "note": "[Example 245, 2-Fluoro-N-((1S)-2-{[4-({(2S,5R)-5-[(R)-hydroxy(pyridin-3-yl)methyl]pyrrolidin-2-yl}methyl)phenyl]amino}-1-methyl-2-oxoethyl)benzamide, trifluoracetic acid salt]", "pEC50": "> 9.00"}
{"molecule": "C[C@H](NS(=O)(=O)c1ccc(F)cc1)C(=O)Nc1ccc(C[C@@H]2CC[C@H]([C@H](O)c3cccnc3)N2)cc1", "note": "[Example 246, (2S)-2-{[(4-Fluorophenyl)sulfonyl]amino}-N-[4-({(2S,5R)-5-[(R)-hydroxy(pyridin-3-yl)methyl]pyrrolidin-2-yl}methyl)phenyl]propanamide]", "pEC50": "> 7.00"}
{"molecule": "O=C(Nc1ccc(C[C@@H]2CC[C@H]([C@H](O)c3cncc(F)c3)N2)cc1)[C@@H]1CCc2scnc21", "note": "[Example 262, (4R)—N-[4-({(2S,5R)-5-[(R)-(5-fluoropyridin-3-yl)(hydroxy)methyl]pyrrolidin-2-yl}methyl)phenyl]-5,6-dihydro-4H-cyclopenta[d][1,3]thiazole-4-carboxamide, trifluoroacetic acid salt]", "pEC50": "> 8.00"}
{"molecular_target": "T2, β3AR (Rattus norvegicus, UniProt P26255)", "T2 construct": "Following intravenous administration to rats; host or cells: living rats (bladder, in vivo)", "T2 sequence (P26255 whole entry)": "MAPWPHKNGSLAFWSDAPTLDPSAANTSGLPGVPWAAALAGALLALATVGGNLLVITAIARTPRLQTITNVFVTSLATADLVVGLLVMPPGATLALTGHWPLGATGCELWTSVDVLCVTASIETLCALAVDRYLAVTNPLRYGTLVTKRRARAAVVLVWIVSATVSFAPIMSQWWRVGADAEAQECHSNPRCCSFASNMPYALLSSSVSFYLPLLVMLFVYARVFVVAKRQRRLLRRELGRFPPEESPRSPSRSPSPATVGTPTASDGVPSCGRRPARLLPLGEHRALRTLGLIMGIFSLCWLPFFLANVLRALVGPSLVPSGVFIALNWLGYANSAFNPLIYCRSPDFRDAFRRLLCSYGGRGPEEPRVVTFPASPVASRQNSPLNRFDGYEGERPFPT", "test": "not given", "conditions": "rats, intravenous administration, cystometric studies; cited from earlier work"}
{"molecule": "C[C@H](Cc1ccc2c(c1)OC(C(=O)[O-])(C(=O)[O-])O2)NC[C@H](O)c1cccc(Cl)c1.[Na+].[Na+]", "note": "[CL316243]", "bladder capacity": "increases bladder capacity"}
{"molecular_target": "T2, β3AR", "test": "not given", "conditions": "rats, intravenous administration; cited from earlier work"}
{"molecule": "C[C@H](Cc1ccc2c(c1)OC(C(=O)[O-])(C(=O)[O-])O2)NC[C@H](O)c1cccc(Cl)c1.[Na+].[Na+]", "note": "[CL316243]", "bladder pressure": "reduces bladder pressure"}
